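Each compound was tested at five concentrations against cells in 96-well plates for 48 hours. At the GI50, growth is halved. TGI marks complete inhibition of growth.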

The first assay concerns NCI-H522 lung. In words: NCI tumour cell line growth inhibition, 48 h.
Turning to `COc1c(Br)cc2c(c1OC)C(Br)CCC(Br)(Br)C2=O` (stereo unspecified), the TGI is 2 µM.
The same measure, in the same setting: then `O=C1C=CC2(C=C1)O[C@H](Cc1ccccc1)[C@@H](Cc1ccccc1)O2`, with 0.42 µM.
The molecule `CCCNC(=O)C(C)C1CCC2(C)C=CC(=O)C(C)=C2C1O` (stereo unspecified) displayed a TGI greater than 100 µM.
Regarding `O=C(Nc1nc2ccc([N+](=O)[O-])cc2s1)C(=O)C(C(=O)c1ccccc1F)C1OC(=O)c2ccccc21` (stereo unspecified), the TGI stood at 51.8 µM.

For a further assay, the system named is SF-295 CNS. The assay can be described thus: NCI tumour cell line growth inhibition, 48 h.
Take `N#C[C@H](OC1OC(COC2OC(CO)C(O)C(O)C2O)C(O)C(O)C1O)c1ccccc1` (stereo partly specified): the TGI is greater than 250 µM.
For `Cn1c(=O)c2[nH]c(CCNC(=O)c3ccccc3)nc2n(C)c1=O`, the TGI was greater than 100 µM.
On to `Cc1cc(S(=O)(=O)Nc2nc3ccccc3nc2-c2cccc([N+](=O)[O-])c2)c(S)cc1Cl`, for which the TGI amounted to 59.8 µM.
`O=c1ssc(=Nc2ccccc2)n1-c1ccccc1` came in with a TGI greater than 100 µM.
On the same count and under the same terms, next, `NCCSS(=O)(=O)CCN`: greater than 100 µM; `CC(=O)Oc1cc2c(cc1OC(C)=O)OCC(c1ccccc1)C2` (stereo unspecified): 49.8 µM; `OCCNCCN1CCN(CCCN2c3ccccc3Sc3ccc(C(F)(F)F)cc32)CC1`: 34.9 µM.
Same read-out and setting: then `O=C(CCl)NNC1=Nc2ccc(Cl)cc2SC1`, with 28.4 µM; and `CCCc1c(-c2ccccc2)[nH]c2ccccc2c1=O`, with greater than 100 µM.
On the same count and under the same terms, then `Cc1ccc(C2OC(COCc3ccc(Cl)cc3)C(OCc3ccc(Cl)cc3)C2O)cc1` (stereo unspecified), with 32 µM.
In turn, `C[N+](C)(C)CCc1ccccc1` returned a TGI greater than 100 µM.
Same read-out and setting: next, `COc1c(Br)cc2c(c1OC)C(Br)CCC(Br)(Br)C2=O` (stereo unspecified): 6.77 µM; `O=C1C=CC2(C=C1)O[C@H](Cc1ccccc1)[C@@H](Cc1ccccc1)O2`: 5.15 µM.
The molecule `CCCNC(=O)C(C)C1CCC2(C)C=CC(=O)C(C)=C2C1O` (stereo unspecified) registered a TGI greater than 100 µM.
Still for that read-out and setting: next, `O=C(Nc1nc2ccc([N+](=O)[O-])cc2s1)C(=O)C(C(=O)c1ccccc1F)C1OC(=O)c2ccccc21` (stereo unspecified): greater than 100 µM.
The same measure, in the same setting: next, `Nc1ccn(C2C=C(CO)C(O)C2O)c(=O)c1` (stereo unspecified): greater than 625 µM; `COc1nc(=O)n(COC(CO)CN2C(=O)c3ccccc3C2=O)cc1Cc1cccc(OCc2ccccc2)c1` (stereo unspecified): 48.9 µM.

Another assay has as its system HL-60(TB) leukemia. The assay can be described thus: NCI tumour cell line growth inhibition, 48 h.
As to `N#C[C@H](OC1OC(COC2OC(CO)C(O)C(O)C2O)C(O)C(O)C1O)c1ccccc1` (stereo partly specified), the GI50 was greater than 141 µM and the TGI was greater than 141 µM.
Turning to `CCN(CC)c1ccc2cc(C(=O)Nc3ccc4[nH]c(C(=O)N5C[C@@H](CCl)c6c5cc(OC(=O)Nc5ccccc5)c5[nH]cc(C)c65)cc4c3)oc2c1`, the GI50 was 125 µM and the TGI came out at 624 µM.
As for `Cc1cc(S(=O)(=O)Nc2nc3ccccc3nc2-c2cccc([N+](=O)[O-])c2)c(S)cc1Cl`, the TGI is 44.4 µM.
For the molecule `O=c1ssc(=Nc2ccccc2)n1-c1ccccc1`, the TGI amounted to 96.2 µM.
Still for that read-out and setting: then `NCCSS(=O)(=O)CCN`, with greater than 100 µM.
Same read-out and setting: next, `CC(=O)Oc1cc2c(cc1OC(C)=O)OCC(c1ccccc1)C2` (stereo unspecified): 9.01 µM; `OCCNCCN1CCN(CCCN2c3ccccc3Sc3ccc(C(F)(F)F)cc32)CC1`: greater than 100 µM; `O=C(CCl)NNC1=Nc2ccc(Cl)cc2SC1`: 3.3 µM.
`CCCc1c(-c2ccccc2)[nH]c2ccccc2c1=O` returned a TGI greater than 100 µM.
Turning to `CO/N=C(/C)c1ccc(NC(=O)CSc2nnc(-c3ccncc3)n2-c2ccccc2)cc1`, the GI50 was greater than 100 µM and the TGI was greater than 100 µM.
`C[N+](C)(C)CCc1ccccc1`: the TGI is greater than 100 µM.
Same read-out and setting: next, `COc1c(Br)cc2c(c1OC)C(Br)CCC(Br)(Br)C2=O` (stereo unspecified): 3.09 µM; `O=C1C=CC2(C=C1)O[C@H](Cc1ccccc1)[C@@H](Cc1ccccc1)O2`: 6.52 µM.
On the same count and under the same terms, next, `CCCNC(=O)C(C)C1CCC2(C)C=CC(=O)C(C)=C2C1O` (stereo unspecified): greater than 100 µM.
For `O=C(Nc1nc2ccc([N+](=O)[O-])cc2s1)C(=O)C(C(=O)c1ccccc1F)C1OC(=O)c2ccccc21` (stereo unspecified), the TGI was 51.2 µM.
For the molecule `Nc1ccn(C2C=C(CO)C(O)C2O)c(=O)c1` (stereo unspecified), the TGI is greater than 625 µM.
`COc1nc(=O)n(COC(CO)CN2C(=O)c3ccccc3C2=O)cc1Cc1cccc(OCc2ccccc2)c1` (stereo unspecified) registered a TGI of 41.8 µM.

For the next assay, the system named is UACC-257 melanoma. The assay can be described thus: NCI tumour cell line growth inhibition, 48 h.
As for `N#C[C@H](OC1OC(COC2OC(CO)C(O)C(O)C2O)C(O)C(O)C1O)c1ccccc1` (stereo partly specified), the TGI is greater than 250 µM.
Same read-out and setting: then `CCN(CC)c1ccc2cc(C(=O)Nc3ccc4[nH]c(C(=O)N5C[C@@H](CCl)c6c5cc(OC(=O)Nc5ccccc5)c5[nH]cc(C)c65)cc4c3)oc2c1`, with greater than 1000 µM.
On to `Cn1c(=O)c2[nH]c(CCNC(=O)c3ccccc3)nc2n(C)c1=O`, for which the TGI is greater than 100 µM.
The same measure, in the same setting: next, `Cc1cc(S(=O)(=O)Nc2nc3ccccc3nc2-c2cccc([N+](=O)[O-])c2)c(S)cc1Cl`: 36 µM; `O=c1ssc(=Nc2ccccc2)n1-c1ccccc1`: 38.9 µM.
As to `CC(=O)Oc1cc2c(cc1OC(C)=O)OCC(c1ccccc1)C2` (stereo unspecified), the TGI stood at 29.2 µM.
Same read-out and setting: then `OCCNCCN1CCN(CCCN2c3ccccc3Sc3ccc(C(F)(F)F)cc32)CC1`, with 34.6 µM.
The same measure, in the same setting: then `O=C(CCl)NNC1=Nc2ccc(Cl)cc2SC1`, with 7.53 µM; and `CCCc1c(-c2ccccc2)[nH]c2ccccc2c1=O`, with greater than 100 µM.
Same read-out and setting: then `Cc1ccc(C2OC(COCc3ccc(Cl)cc3)C(OCc3ccc(Cl)cc3)C2O)cc1` (stereo unspecified), with 43.1 µM; and `C[N+](C)(C)CCc1ccccc1`, with greater than 100 µM; and `COc1c(Br)cc2c(c1OC)C(Br)CCC(Br)(Br)C2=O` (stereo unspecified), with 14.7 µM.
On to `O=C1C=CC2(C=C1)O[C@H](Cc1ccccc1)[C@@H](Cc1ccccc1)O2`, for which the TGI amounted to 4.51 µM.
With `CCCNC(=O)C(C)C1CCC2(C)C=CC(=O)C(C)=C2C1O` (stereo unspecified), the TGI is greater than 100 µM.
On the same count and under the same terms, then `O=C(Nc1nc2ccc([N+](=O)[O-])cc2s1)C(=O)C(C(=O)c1ccccc1F)C1OC(=O)c2ccccc21` (stereo unspecified), with greater than 100 µM.
